Data from patent publication US6472391B2, “Nitrogen-containing heterocyclic compounds” (Millennium Pharmaceuticals, Inc., priority 1996, dated 2002).

Compound | melting point [°C]
COc1cc2ncnc(N3CCN(C(=S)NCc4ccccc4)CC3)c2cc1OC [Compound 125, N-Benzyl-4-(6,7-dimethoxy-4-quinazolinyl)-1-piperazinethiocarboxamide] | 187 to 189
COc1cc2ncnc(N3CCN(C(=O)N[C@@H](C)c4ccccc4)CC3)c2cc1OC [Compound 127, (S)-4-(6,7-Dimethoxy-4-quinazolinyl)-N-(1-phenylethyl)-1-piperazinecarboxamide] | 191 to 192
COc1cc2ncnc(N3CCN(C(=S)N[C@@H](C)c4ccccc4)CC3)c2cc1OC [Compound 129, (S)-4-(6,7-Dimethoxy-4-quinazolinyl)-N-(1-phenylethyl)-1-piperazinethiocarboxamide] | 98 to 100
COc1cc2ncnc(N3CCN(C(=S)N[C@H](C)c4ccccc4)CC3)c2cc1OC [Compound 130, (R)-4-(6,7-Dimethoxy-4-quinazolinyl)-N-(1-phenylethyl)-1-piperazinethiocarboxamide] | 99 to 101
COc1cc2ncnc(N3CCN(C(=S)NCc4cccc5ccccc45)CC3)c2cc1OC [Compound 132, 4-(6,7-Dimethoxy-4-quinazolinyl)-N-(1-naphthylmethyl)-1-piperazinethiocarboxamide] | 164 to 165
COc1cc2ncnc(N3CCN(C(=S)NC(c4ccccc4)c4ccccc4)CC3)c2cc1OC [Compound 133, 4-(6,7-Dimethoxy-4-quinazolinyl)-N-diphenylmethyl-1-piperazinethiocarboxamide] | 128 to 129
COc1cc2ncnc(N3CCN(C(=O)N(C)c4ccccc4)CC3)c2cc1OC [Compound 137, 4-(6,7-Dimethoxy-4-quinazolinyl)-N-methyl-N-phenyl-1-piperazinecarboxamide] | 187 to 188
COc1cc2ncnc(N3CCN(C(=S)NC(=O)C=Cc4ccccc4)CC3)c2cc1OC [Compound 143, N-Cinnamoyl-4-(6,7-dimethoxy-4-quinazolinyl)-1-piperazinethiocarboxamide] | 184 to 186
COc1cc2ncnc(N3CCN(C(=O)Nc4cccc(C)c4)CC3)c2cc1OC [Compound 144, 4-(6,7-Dimethoxy-4-quinazolinyl)-N-(3-tolyl)-1-piperazinecarboxamide] | 218 to 219
COc1cc2ncnc(N3CCN(C(=S)NCc4ccc(C)cc4)CC3)c2cc1OC [Compound 147, 4-(6,7-Dimethoxy-4-quinazolinyl)-N-(4-methylbenzyl)-1-piperazinethiocarboxamide] | 202 to 204
COc1cc2ncnc(N3CCN(C(=S)Nc4cccc(C(C)C)c4)CC3)c2cc1OC [Compound 151, 4-(6,7-Dimethoxy-4-quinazolinyl)-N-(3-isopropylphenyl)-1-piperazinethiocarboxamide] | 169 to 171
COc1cc2ncnc(N3CCN(C(=S)NCc4ccc(C(C)C)cc4)CC3)c2cc1OC [Compound 154, 4-(6,7-Dimethoxy-4-quinazolinyl)-N-(4-isopropylbenzyl)-1-piperazinethiocarboxamide] | 178 to 179
COc1cc2ncnc(N3CCN(C(=O)Nc4ccc(C(C)(C)C)cc4)CC3)c2cc1OC [Compound 156, N-(4-tert-Butylphenyl)-4-(6,7-dimethoxy-4-quinazolinyl)-1-piperazinecarboxamide] | 109 to 111
COc1cc2ncnc(N3CCN(C(=O)Nc4ccc(OC(F)F)cc4)CC3)c2cc1OC [Compound 158, N-(4-Difluoromethoxyphenyl)-4-(6,7-dimethoxy-4-quinazolinyl)-1-piperazinecarboxamide] | 190 to 192
COc1cc2ncnc(N3CCN(C(=S)Nc4ccc(C(F)(F)F)cc4)CC3)c2cc1OC [Compound 159, 4-(6,7-Dimethoxy-4-quinazolinyl)-N-(4-trifluoromethylphenyl)-1-piperazinethiocarboxamide] | 117 to 119
COc1cc2ncnc(N3CCN(C(=O)NCc4ccc(C(F)(F)F)cc4)CC3)c2cc1OC [Compound 160, 4-(6,7-Dimethoxy-4-quinazolinyl)-N-(4-trifluoromethylbenzyl)-1-piperazinecarboxamide] | 195 to 197
COc1cc2ncnc(N3CCN(C(=O)Nc4cccc(C(F)(F)F)c4)CC3)c2cc1OC [Compound 162, 4-(6,7-Dimethoxy-4-quinazolinyl)-N-(3-trifluoromethylphenyl)-1-piperazinecarboxamide] | 180 to 181
COc1cc2ncnc(N3CCN(C(=S)Nc4cccc(C(F)(F)F)c4)CC3)c2cc1OC [Compound 163, 4-(6,7-Dimethoxy-4-quinazolinyl)-N-(3-trifluoromethylphenyl)-1-piperazinethiocarboxamide] | 171 to 172
CCC[C@H]1CC[C@H](c2ccc(NC(=S)N3CCN(c4ncnc5cc(OC)c(OC)cc45)CC3)cc2)CC1 [Compound 169, 4-(6,7-Dimethoxy-4-quinazolinyl)-N-[trans-4-(4-propylcyclohexyl)phenyl]-1-piperazinethiocarboxamide] | 106 to 109
COc1cc2ncnc(N3CCN(C(=S)NCc4cccc(F)c4)CC3)c2cc1OC [Compound 171, 4-(6,7-Dimethoxy-4-quinazolinyl)-N-(3-fluorobenzyl)-1-piperazinethiocarboxamide] | 100 to 102
COc1cc2ncnc(N3CCN(C(=O)NCc4ccc(F)cc4)CC3)c2cc1OC [Compound 172, 4-(6,7-Dimethoxy-4-quinazolinyl)-N-(4-fluorobenzyl)-1-piperazinecarboxamide] | 200 to 201
COc1cc2ncnc(N3CCN(C(=S)NCc4ccc(F)cc4)CC3)c2cc1OC [Compound 173, 4-(6,7-Dimethoxy-4-quinazolinyl)-N-(4-fluorobenzyl)-1-piperazinethiocarboxamide] | 217 to 218
COc1cc2ncnc(N3CCN(C(=S)Nc4cccc(Cl)c4)CC3)c2cc1OC [Compound 175, N-(3-Chlorophenyl)-4-(6,7-dimethoxy-4-quinazolinyl)-1-piperazinethiocarboxamide] | 222 to 224

The remaining lines, values ahead:

melting point [°C] | Compound
248 to 251 | CCn1c(=O)[nH]c2cc3c(N4CCN(C(=O)Nc5ccc(Oc6ccccc6)cc5)CC4)ncnc3cc21 [Compound 123, 4-(3-Ethyl-1,3-dihydro-2-oxo-2H-imidazo[4,5-g]quinazolin-8-yl)-N-(4-phenoxyphenyl)-1-piperazinecarboxamide]
167 to 168 | CCn1nnc2cc3c(N4CCN(C(=O)Nc5ccc(Oc6ccccc6)cc5)CC4)ncnc3cc21 [Compound 124, 4-(3-Ethyl-3H-1,2,3-triazolo[4,5-g]quinazolin-8-yl)-N-(4-phenoxyphenyl)-1-piperazinecarboxamide]
189 to 190 | COc1cc2ncnc(N3CCN(C(=O)N[C@H](C)c4ccccc4)CC3)c2cc1OC [Compound 128, (R)-4-(6,7-Dimethoxy-4-quinazolinyl)-N-(1-phenylethyl)-1-piperazinecarboxamide]
170 to 171 | COc1cc2ncnc(N3CCN(C(=S)NCC4CCCCC4)CC3)c2cc1OC [Compound 138, N-Cyclohexylmethyl-4-(6,7-dimethoxy-4-quinazolinyl)-1-piperazinethiocarboxamide]
79 to 81 | COc1cc2ncnc(N3CCN(C(=S)NCCN4CCOCC4)CC3)c2cc1OC [Compound 142, 4-(6,7-Dimethoxy-4-quinazolinyl)-N-(2-morpholinoethyl)-1-piperazinethiocarboxamide]
199 to 201 | COc1cc2ncnc(N3CCN(C(=S)Nc4cccc(C)c4)CC3)c2cc1OC [Compound 145, 4-(6,7-Dimethoxy-4-quinazolinyl)-N-(3-tolyl)-1-piperazinethiocarboxamide]
204 to 205 | COc1cc2ncnc(N3CCN(C(=S)Nc4ccc(C)cc4)CC3)c2cc1OC [Compound 146, 4-(6,7-Dimethoxy-4-quinazolinyl)-N-(4-tolyl)-1-piperazinethiocarboxamide]
207 to 208 | CCc1cccc(NC(=O)N2CCN(c3ncnc4cc(OC)c(OC)cc34)CC2)c1 [Compound 148, 4-(6,7-Dimethoxy-4-quinazolinyl)-N-(3-ethylphenyl)-1-piperazinecarboxamide]
195 to 197 | CCc1cccc(NC(=S)N2CCN(c3ncnc4cc(OC)c(OC)cc34)CC2)c1 [Compound 149, 4-(6,7-Dimethoxy-4-quinazolinyl)-N-(3-ethylphenyl)-1-piperazinethiocarboxamide]
196 to 197 | COc1cc2ncnc(N3CCN(C(=O)Nc4cccc(C(C)C)c4)CC3)c2cc1OC [Compound 150, 4-(6,7-Dimethoxy-4-quinazolinyl)-N-(3-isopropylphenyl)-1-piperazinecarboxamide]
194 to 195 | COc1cc2ncnc(N3CCN(C(=S)Nc4ccc(C(C)C)cc4)CC3)c2cc1OC [Compound 152, 4-(6,7-Dimethoxy-4-quinazolinyl)-N-(4-isopropylphenyl)-1-piperazinethiocarboxamide]
135 to 136 | COc1cc2ncnc(N3CCN(C(=O)NCc4ccc(C(C)C)cc4)CC3)c2cc1OC [Compound 153, 4-(6,7-Dimethoxy-4-quinazolinyl)-N-(4-isopropylbenzyl)-1-piperazinecarboxamide]
104 to 105 | COc1cc2ncnc(N3CCN(C(=S)NCc4ccc(C(C)(C)C)cc4)CC3)c2cc1OC [Compound 157, N-(4-tert-Butylbenzyl)-4-(6,7-dimethoxy-4-quinazolinyl)-1-piperazinethiocarboxamide]
216 to 217 | COc1cc2ncnc(N3CCN(C(=S)NCc4ccc(C(F)(F)F)cc4)CC3)c2cc1OC [Compound 161, 4-(6,7-Dimethoxy-4-quinazolinyl)-N-(4-trifluoromethylbenzyl)-1-piperazinethiocarboxamide]
214 to 216 | C=Cc1ccc(NC(=O)N2CCN(c3ncnc4cc(OC)c(OC)cc34)CC2)cc1 [Compound 164, 4-(6,7-Dimethoxy-4-quinazolinyl)-N-(4-vinylphenyl)-1-piperazinecarboxamide]
175 to 176 | COc1cc2ncnc(N3CCN(C(=S)NCc4ccccc4Cl)CC3)c2cc1OC [Compound 176, N-(2-Chlorobenzyl)-4-(6,7-dimethoxy-4-quinazolinyl)-1-piperazinethiocarboxamide]
